# Reference: article PMC8706998, “Lipid Nanocarriers-Loaded Nanocomposite as a Suitable Platform to Release Antibacterial and Antioxidant Agents for Immediate Dental Implant Placement Restorative Treatment” (Pharmaceutics, 2021)
# Tests used:
# [1] = QRC and CPX solubility studies in aqueous media; assay type: physicochemical; details: for solubility at 120 min: 37 °C, pH 5.5, aqueous with cosolvent or surfactant or cyclodextrin, thermodynamic from solid, 37 ± 0.5 °C
# Protocol: QRC, in excess, was added to each medium (1 mL) until precipitation occurred. […] The solubility tests were performed in triplicate. Results are reported as means ± SE.
# [2] = QRC stability after UV irradiation by EPR spectroscopy; assay type: physicochemical
# Protocol: EPR measurements were carried out on 25 mg of QRC and BioQ-CPX at room temperature using a Bruker ELEXSYS E-500 spectrometer (Bruker, Billerica, MA, USA) operated at 9.8 GHz (X-band), operating at 6 mW microwave power and 0.15 mT modulation amplitude. To evaluate the effects of light exposure in the samples, UV-A/UV-B irradiator alternatively equipped with lamps of 25 W and 50 W (Light-Emitting Diode Philips, Amsterdam, The Netherlands) was used. Preliminarily, the paramagnetic center of QRC (pure drug) before and after 20 min of UV irradiation (50 W) was characterized. Afterwards, to evaluate the BioQ-CPX capability in preserving QRC from light exposure, aliquots of QRC and BioQ-CPX were irradiated by 25 W or 50 W lamps over time. […] UV irradiation was accomplished up to 60 min for all samples and EPR analysis was carried out every 5 min. Signals were normalized to the QRC mass contained in each sample. Data are reported as mean ± SE (n = 3).
structure (smiles),measurement,setting,value
"O=c1c(O)c(-c2ccc(O)c(O)c2)oc2cc(O)cc(O)c12 [QRC, quercetin]",solubility at 120 min,[1]; Citrate buffer pH 5.5/ACys plus DMSO 10% v/v,0.029 mg/mL
same,solubility at 120 min,[1]; Citrate buffer pH 5.5/ACys plus β-CD 2% w/v,0.083 mg/mL
same,solubility at 120 min,[1]; Citrate buffer pH 5.5/ACys plus β-CD 3% w/v,0.103 mg/mL
same,solubility enhancement compared to water solubility,[1]; in presence of β-CD 2%,42 fold
same,UV exposure time until Hpp plateau (antioxidant power exhausted),"[2]; 25 W or 50 W lamp, irradiation up to 60 min",25 min
same,EPR amplitude Hpp normalized to mass,"[2]; 20 min UV irradiation, 50 W lamp",1.018 u.a.
same,EPR amplitude Hpp normalized to mass,[2]; not irradiated,0.054 u.a.
